# Source: US7238689B2, “Isoxazoline derivative and herbicide comprising the same as active ingredient” (Ihara Chemical Industry Co., Ltd., priority 2001, dated 2007)
# Test system: Setaria viridis (L.) Beauv.
# Assay: Herbicidal effect by upland field soil treatment
# Format: in vivo
# Parameters: scale not given here
# Conditions: active ingredient 1000 g/ha, examined at 21st day from treatment
# Source text: (§1) An upland field soil was filled in a plastic pot of 80 cm^2. Seeds of Echinochloa crus-galli (L.) Beauv. var. crusgalli and Setaria viridis (L.) Beauv. were sowed, followed by covering with the same soil. […] Then, breeding was made in a greenhouse, and the herbicidal effect of each wettable powder was examined at the 21st day from the treatment in accordance with the standard shown in Table 21.
row,SMILES,"herbicidal effect (index per standard of Table 21), Setaria viridis (L.) Beauv."
1,"Cn1nc(C(F)F)c(CSC2=NOC(C)(C)C2)c1Cl [3-0020, 3-(5-chloro-3-difluoromethyl-1-methyl-1H-pyrazol-4-ylmethylthio)-5,5-dimethyl-2-isoxazoline]",5
2,CC1(C)CC(S(=O)(=O)Cc2c(C(F)(F)F)nn(CC(N)=O)c2Cl)=NO1 [3-0138],5
3,"CC1(C)CC(S(=O)(=O)Cc2c[n+]([O-])ccc2C(F)(F)F)=NO1 [7-0002, 5,5-dimethyl-3-(4-trifluoromethyl-pyridine-N-oxide-3-ylmethylsulfonyl)-2-isoxazoline]",5
4,CCOc1onc(C(F)(F)F)c1CS(=O)(=O)C1=NOC(C)(C)C1 [4-0006],5
5,Cn1nc(C(F)(F)F)c(CS(=O)(=O)C2=NOC(C)(C)C2)c1OCC1CC1 [3-0050],5
6,CCOc1ncnc(C(F)(F)F)c1CS(=O)(=O)C1=NOC(C)(C)C1 [8-0004],5
7,C#CCOc1c(CS(=O)(=O)C2=NOC(C)(C)C2)c(C(F)(F)F)nn1C [3-0053],5
8,CC(=O)Cn1nc(C(F)(F)F)c(CS(=O)(=O)C2=NOC(C)(C)C2)c1Cl [3-0142],5
9,Cc1sc(C)c(CS(=O)(=O)C2=NOC(C)(C)C2)c1C [2-0007],4
10,COc1ncnc(OC)c1CS(=O)(=O)C1=NOC(C)(C)C1 [8-0005],4
11,CC1(C)CC(S(=O)(=O)Cc2nn(C(F)F)c3c2CCCC3)=NO1 [6-0001],5
12,CCOC(=O)Cn1nc(C(F)(F)F)c(CS(=O)(=O)C2=NOC(C)(C)C2)c1Cl [3-0136],5
13,CCCCOc1c(CS(=O)(=O)C2=NOC(C)(C)C2)c(C(F)(F)F)nn1C [3-0048],5
14,COc1nn(C)c(C(F)(F)F)c1CS(=O)(=O)C1=NOC(C)(C)C1 [3-0043],5
15,CC1(C)CC(S(=O)(=O)Cc2nc(Cc3ccccc3)no2)=NO1 [9-0007],4
16,Cn1nc(C(F)(F)F)c(CS(=O)(=O)C2=NOC(C)(C)C2)c1OCC(F)F [3-0056],5
17,COc1c(CS(=O)(=O)C2=NOC(C)(C)C2)c(-c2ccccc2)cc[n+]1[O-] [7-0007],4
18,COc1nc(OC)c(CS(=O)(=O)C2=NOC(C)(C)C2)c(C(F)(F)F)n1 [8-0007],5
19,CC(=O)Cn1nc(Cl)c(CS(=O)(=O)C2=NOC(C)(C)C2)c1C(F)(F)F [3-0143],5

# Test system: Echinochloa crus-galli (L.) Beauv. var. crusgalli
# Assay: Herbicidal effect by upland field soil treatment
# Format: in vivo
# Parameters: scale not given here
# Conditions: active ingredient 1000 g/ha, examined at 21st day from treatment
# Source text: as §1
row,SMILES,"herbicidal effect (index per standard of Table 21), Echinochloa curs-galli (L.) Beauv. Var. crus-galli"
1,"Cn1nc(C(F)F)c(CSC2=NOC(C)(C)C2)c1Cl [3-0020, 3-(5-chloro-3-difluoromethyl-1-methyl-1H-pyrazol-4-ylmethylthio)-5,5-dimethyl-2-isoxazoline]",5
2,CC1(C)CC(S(=O)(=O)Cc2c(C(F)(F)F)nn(CC(N)=O)c2Cl)=NO1 [3-0138],4
3,"CC1(C)CC(S(=O)(=O)Cc2c[n+]([O-])ccc2C(F)(F)F)=NO1 [7-0002, 5,5-dimethyl-3-(4-trifluoromethyl-pyridine-N-oxide-3-ylmethylsulfonyl)-2-isoxazoline]",5
4,CCOc1onc(C(F)(F)F)c1CS(=O)(=O)C1=NOC(C)(C)C1 [4-0006],5
5,Cn1nc(C(F)(F)F)c(CS(=O)(=O)C2=NOC(C)(C)C2)c1OCC1CC1 [3-0050],5
6,CCOc1ncnc(C(F)(F)F)c1CS(=O)(=O)C1=NOC(C)(C)C1 [8-0004],5
7,C#CCOc1c(CS(=O)(=O)C2=NOC(C)(C)C2)c(C(F)(F)F)nn1C [3-0053],5
8,CC(=O)Cn1nc(C(F)(F)F)c(CS(=O)(=O)C2=NOC(C)(C)C2)c1Cl [3-0142],5
9,Cc1sc(C)c(CS(=O)(=O)C2=NOC(C)(C)C2)c1C [2-0007],4
10,COc1ncnc(OC)c1CS(=O)(=O)C1=NOC(C)(C)C1 [8-0005],5
11,CC1(C)CC(S(=O)(=O)Cc2nn(C(F)F)c3c2CCCC3)=NO1 [6-0001],5
12,CCOC(=O)Cn1nc(C(F)(F)F)c(CS(=O)(=O)C2=NOC(C)(C)C2)c1Cl [3-0136],5
13,CCCCOc1c(CS(=O)(=O)C2=NOC(C)(C)C2)c(C(F)(F)F)nn1C [3-0048],5
14,COc1nn(C)c(C(F)(F)F)c1CS(=O)(=O)C1=NOC(C)(C)C1 [3-0043],5
15,CC1(C)CC(S(=O)(=O)Cc2nc(Cc3ccccc3)no2)=NO1 [9-0007],4
16,Cn1nc(C(F)(F)F)c(CS(=O)(=O)C2=NOC(C)(C)C2)c1OCC(F)F [3-0056],5
17,COc1c(CS(=O)(=O)C2=NOC(C)(C)C2)c(-c2ccccc2)cc[n+]1[O-] [7-0007],5
18,COc1nc(OC)c(CS(=O)(=O)C2=NOC(C)(C)C2)c(C(F)(F)F)n1 [8-0007],5
19,CC(=O)Cn1nc(Cl)c(CS(=O)(=O)C2=NOC(C)(C)C2)c1C(F)(F)F [3-0143],5
